Experimental data as given in US20050143391A1, “Heterocyclic amides with alpha-4 integrin antagonist activity” (J. Uriach Y Compañia S.A., priority 2002, published 2005).

What follows are compounds tested against T1, integrin α4β1 (Homo sapiens, UniProt P05556+P13612) (assay: Inhibition of α4β1-dependent cell adhesion (Jurkat cells to peptide CS-1)). Settings: adhesion of Jurkat cells to CS-1-coated plates; products preincubated with cells at 37° C. for 30 minutes; at least 6 product concentrations.
T1 construct: endogenous in cells; host or cells: Jurkat cells
Format: cell-based
Experimental: Inhibition of α4β1-Dependent Cell Adhesion
Inhibition of α4β1-dependent cell adhesion was assayed by evaluating the interaction between the peptide CS-1 (H-CLHGPEILDVPST-CONH2) and Jurkat cells (T lymphocyte cell line expressing activated integrin α4β1 but not integrin α4β7) after preincubation of said cells with the compounds of formula I to be tested. The peptide CS-1 was synthesized by conventional solid phase chemistry and purified by HPLC. Its identity was determined by elemental analysis and mass spectroscopy.
1.—Preparation of CS-1-Coated Plates
96-black well plates (Costar 3925) were used. 200 μL of 2% bovine serum albumin solution (BSA, Sigma α4503) was added per well and the plate was incubated for 2 hours at 37° C. The solution was discarded and the plate was washed twice with 200 μL of phosphate buffered saline solution (PBS, Gibco 14190-094) per well. Then, 200 μL of 10 μg/mL N-succinimidyl 3-(2-pyridyldithio)propionate solution (SPDP, Sigma P-3415) was added per well, and the plate was incubated at 37° C. for 30 minutes. The remaining solution was discarded and the plate was twice washed with 200 μL per well of PBS. Next, 200 μL of 25 μg/mL CS-1 peptide solution (equivalent to 5 μg/well) was added per well and the plate was incubated at 37° C. for 2 hours and then overnight at 4° C.
2.—Jurkat Cell Line: Culture and Fluorescent Labelling
Jurkat cells were kept in culture at a density comprised between 2×10^5 and 1.5×10^6 cells/mL in 1640 RPMI medium (Gibco 21875-034) enriched with 10% fetal calf serum (FCS, Gibco 10270-106).
50×10^6 cells were extracted, centrifuged (1200 rpm, 10 min, room temperature) and the medium was discarded. Cells were resuspended in 5 mL of RPMI, and 10 μL of a 1 mM solution of the fluorophore calceine.AM (Molecular Probes, C-3100) was added. The suspension was incubated for 30 min at 37° C. in the darkness, with occasional shaking. 40 mL of RPMI was added to stop the labelling and the suspension was centrifuged (1200 rpm, 10 min, room temperature). The medium was discarded, and the labelled cells were washed with 40 mL of RPMI in order to remove the unincorporated fluorescent probe. Finally, cells were resuspended in RPMI enriched with 10% FCS to obtain a 8×10^6 cells/mL suspension.
The plate previously prepared was twice washed with 200 μL per well of PBS and blocked with 200 μL of 1% BSA for at least 1 hour at room temperature.
The products to be tested were dissolved in dimethylsulfoxide at a concentration of 10 mM and dilutions thereof were prepared in RPMI medium enriched with 10% FCS. The products were preincubated with the Jurkat cells at 37° C. for 30 minutes, at a product concentration comprised between 1 nM and 10 μM, at a cell density of 4×10^6 cells/mL and at a maximal dimethylsulfoxide concentration of 0.1%.
100 μL of the resulting cell-product supsension was added per well (cellular density 4×10^5 cells/well). The product was omitted in the control wells and cells or CS-1 were omitted in the blanks. The plate was incubated for 60 min at room temperature in the-darkness, was twice washed with 200 μL per well of RPMI and then 100 μL of PBS was added. The plate was read with a fluorescence reader at an excitation wavelength of 485 nm and at an emission wavelength of 530 nm.
Maximal adhesion (100%) was determined as the average of the fluorescence intensities (FI) of the control wells, and the minimal adhesion as the average FI of the blanks. The adhesion inhibition percentage was determined using the following formula: [formula]
The results are expressed as the IC50 values (concentration producing 50% inhibition). IC50 values were calculated by testing at least 6 product concentrations and by adjusting the inhibition percentages to a dose-response curve of variable slope.

T1 sequence (P13612 34-1032): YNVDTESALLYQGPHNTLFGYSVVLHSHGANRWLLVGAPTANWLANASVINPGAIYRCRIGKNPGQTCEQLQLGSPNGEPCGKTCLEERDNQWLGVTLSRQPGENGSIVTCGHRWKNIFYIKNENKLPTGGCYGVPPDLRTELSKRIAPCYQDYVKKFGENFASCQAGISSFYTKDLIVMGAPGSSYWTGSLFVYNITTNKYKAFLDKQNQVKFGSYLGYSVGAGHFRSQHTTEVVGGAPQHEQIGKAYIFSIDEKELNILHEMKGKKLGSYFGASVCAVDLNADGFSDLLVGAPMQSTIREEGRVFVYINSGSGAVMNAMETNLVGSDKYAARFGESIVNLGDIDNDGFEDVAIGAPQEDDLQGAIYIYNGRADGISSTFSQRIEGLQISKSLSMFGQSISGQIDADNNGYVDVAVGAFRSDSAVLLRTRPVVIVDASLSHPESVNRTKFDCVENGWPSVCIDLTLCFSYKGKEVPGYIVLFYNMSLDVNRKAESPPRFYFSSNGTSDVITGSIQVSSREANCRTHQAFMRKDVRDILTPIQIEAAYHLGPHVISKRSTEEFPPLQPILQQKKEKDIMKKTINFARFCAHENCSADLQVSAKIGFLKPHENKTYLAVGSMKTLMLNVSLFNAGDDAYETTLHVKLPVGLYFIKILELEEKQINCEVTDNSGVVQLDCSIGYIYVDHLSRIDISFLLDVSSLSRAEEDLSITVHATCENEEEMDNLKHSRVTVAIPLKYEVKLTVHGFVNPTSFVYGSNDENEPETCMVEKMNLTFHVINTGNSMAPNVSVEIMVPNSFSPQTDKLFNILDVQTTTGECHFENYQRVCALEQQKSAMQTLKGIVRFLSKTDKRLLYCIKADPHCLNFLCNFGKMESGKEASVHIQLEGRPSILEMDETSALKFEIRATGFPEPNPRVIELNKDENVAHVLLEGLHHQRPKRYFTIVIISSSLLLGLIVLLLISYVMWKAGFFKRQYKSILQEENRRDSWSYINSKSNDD
T1 sequence (P05556 21-798): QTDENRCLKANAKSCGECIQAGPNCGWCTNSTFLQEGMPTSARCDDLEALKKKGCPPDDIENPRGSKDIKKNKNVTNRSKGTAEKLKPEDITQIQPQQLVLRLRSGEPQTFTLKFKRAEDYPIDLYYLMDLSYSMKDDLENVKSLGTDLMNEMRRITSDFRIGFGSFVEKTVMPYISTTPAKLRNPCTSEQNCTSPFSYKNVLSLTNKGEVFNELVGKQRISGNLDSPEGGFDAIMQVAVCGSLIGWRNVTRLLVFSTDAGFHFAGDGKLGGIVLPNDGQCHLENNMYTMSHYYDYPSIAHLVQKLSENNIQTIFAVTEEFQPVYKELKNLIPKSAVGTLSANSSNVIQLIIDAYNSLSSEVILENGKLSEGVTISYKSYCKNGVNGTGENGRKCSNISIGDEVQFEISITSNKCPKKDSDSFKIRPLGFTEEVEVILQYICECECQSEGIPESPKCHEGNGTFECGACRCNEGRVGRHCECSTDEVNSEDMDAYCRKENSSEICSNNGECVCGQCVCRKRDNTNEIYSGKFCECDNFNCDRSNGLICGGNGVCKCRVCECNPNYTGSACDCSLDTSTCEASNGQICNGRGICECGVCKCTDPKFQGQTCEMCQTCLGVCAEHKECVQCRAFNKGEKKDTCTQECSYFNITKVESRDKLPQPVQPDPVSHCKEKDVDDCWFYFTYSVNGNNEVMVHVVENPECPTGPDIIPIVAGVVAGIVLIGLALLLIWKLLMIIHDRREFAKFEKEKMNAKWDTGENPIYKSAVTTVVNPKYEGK

First: O=C(O)[C@H](CCC(=O)N1CCC(CCN2CCOCC2)CC1)NC(=O)[C@@H]1CCCN1S(=O)(=O)c1cc(Cl)cc(Cl)c1 [Example 80, (2S)-2-[1-(3,5-Dichlorophenylsulfonyl)-L-prolylamino]-5-[4-[2-(4-morpholinyl)ethyl]piperidin-1-yl]-5-oxopentanoic Acid]
Second: O=C(O)[C@H](CCC(=O)N1CCC(CN2CCCCC2)CC1)NC(=O)[C@@H]1CCCN1S(=O)(=O)c1cc(Cl)cc(Cl)c1 [Example 94, (2S)-2-[1-(3,5-Dichlorophenylsulfonyl)-L-prolylamino]-5-oxo-5-[4-(1-piperidylmethyl)piperidin-1-yl]pentanoic Acid]
The IC50 of the first is 28-fold lower: 0.5 nM for the first, 14.1 nM for the second. The first is the more potent here.

Cc1ccc(C)n1CC1CCN(C(=O)CC[C@H](NC(=O)[C@@H]2CCCN2S(=O)(=O)c2cc(Cl)cc(Cl)c2)C(=O)O)CC1 [Example 82, (2S)-2-[1-(3,5-Dichlorophenylsulfonyl)-L-prolylamino]-5-[4-(2,5-dimethylpyrrol-1-ylmethyl)piperidin-1-yl]-5-oxopentanoic Acid] and CN(C)CC1CCN(C(=O)CC[C@H](NC(=O)[C@@H]2CCCN2S(=O)(=O)c2cc(Cl)cc(Cl)c2)C(=O)O)CC1 [Example 83, (2S)-2-[1-(3,5-Dichlorophenylsulfonyl)-L-prolylamino]-5-[4-(dimethylaminomethyl)piperidin-1-yl]-5-oxopentanoic Acid] are within 1.5-fold of each other in IC50: 89 nM for the first, 65 nM for the second.

Compared with CN(C)CCN1CCN(C(=O)CC[C@H](NC(=O)[C@@H]2CCCN2S(=O)(=O)c2cc(Cl)cc(Cl)c2)C(=O)O)CC1 [Example 84, (2S)-2-[1-(3,5-Dichlorophenylsulfonyl)-L-prolylamino]-5-[4-[2-(dimethylamino)ethyl]piperazin-1-yl]-5-oxopentanoic Acid], CCNCC1CCN(C(=O)CC[C@H](NC(=O)[C@@H]2CCCN2S(=O)(=O)c2cc(Cl)cc(Cl)c2)C(=O)O)CC1 [Example 96, (2S)-2-[1-(3,5-Dichlorophenylsulfonyl)-L-prolylamino]-5-[4-[(ethylamino)methyl]piperidin-1-yl]-5-oxopentanoic Acid] is 12-fold higher in IC50: 6 nM for the first, 74.8 nM for the second.

CCc1nc2cnccc2n1CC1CCN(C(=O)CC[C@H](NC(=O)[C@@H]2CCCN2S(=O)(=O)c2cc(Cl)cc(Cl)c2)C(=O)O)CC1 [Example 85, (2S)-2-[1-(3,5-Dichlorophenylsulfonyl)-L-prolylamino]-5-[4-(2-ethylimidazo[4,5-c]pyridin-1-ylmethyl)piperidin-1-yl]-5-oxopentanoic Acid] and CC(C)Nc1nc2cnccc2n1CC1CCN(C(=O)CC[C@H](NC(=O)[C@@H]2CCCN2S(=O)(=O)c2cc(Cl)cc(Cl)c2)C(=O)O)CC1 [Example 87, (2S)-2-[1-(3,5-Dichlorophenylsulfonyl)-L-prolylamino]-5-[(2-isopropylaminoimidazo[4,5-c]pyridin-1-ylmethyl)piperidin-1-yl]-5-oxopentanoic Acid] are within 1.5-fold of each other in IC50: 12 nM for the first, 14.1 nM for the second.

O=C(O)[C@H](CCC(=O)N1CCC(Cn2c(=O)[nH]c3cnccc32)CC1)NC(=O)[C@@H]1CCCN1S(=O)(=O)c1cc(Cl)cc(Cl)c1 [Example 86, (2S)-2-[1-(3,5-Dichlorophenylsulfonyl)-L-prolylamino]-5-oxo-5-[4-(2-oxo-2,3-dihydroimidazo[4,5-c]pyridin-1-ylmethyl)piperidin-1-yl]pentanoic Acid] and O=C(O)[C@H](CCC(=O)N1CCC(CNc2ccncc2)CC1)NC(=O)[C@@H]1CCCN1S(=O)(=O)c1cc(Cl)cc(Cl)c1 [Example 99, (2S)-2-[1-(3,5-Dichlorophenylsulfonyl)-L-prolylamino]-5-oxo-5-[4-(4-pyridylaminomethyl)piperidin-1-yl]pentanoic Acid] are within 1.5-fold of each other in IC50: 18 nM for the first, 13.1 nM for the second.

CCN(CC)CC1CCN(C(=O)CC[C@H](NC(=O)[C@@H]2CCCN2S(=O)(=O)c2cc(Cl)cc(Cl)c2)C(=O)O)CC1 [Example 88, (2S)-2-[1-(3,5-Dichlorophenylsulfonyl)-L-prolylamino]-5-[4-(diethylaminomethyl)piperidin-1-yl]-5-oxopentanoic Acid] and CCN(CC)CCC1CCN(C(=O)CC[C@H](NC(=O)[C@@H]2CCCN2S(=O)(=O)c2cc(Cl)cc(Cl)c2)C(=O)O)CC1 [Example 91, (2S)-2-[1-(3,5-Dichlorophenylsulfonyl)-L-prolylamino]-5-[4-[2-(diethylamino)ethyl]piperidin-1-yl]-5-oxopentanoic Acid] are within 1.5-fold of each other in IC50: 83.9 nM for the first, 64.6 nM for the second.

Compared with Cc1nc2cnccc2n1CC1CCN(C(=O)NC[C@H](NC(=O)[C@@H]2CCCN2S(=O)(=O)c2cc(Cl)cc(Cl)c2)C(=O)O)CC1 [Example 89, (2S)-2-[1-(3,5-Dichlorophenylsulfonyl)-L-prolyl]amino-3-[[4-(2-methylimidazo[4,5-c]pyridin-1-ylmethyl)piperidin-1-ylcarbonyl]amino]propionic Acid], CN(C)CC1CCN(C(=O)NC[C@H](NC(=O)[C@@H]2CCCN2S(=O)(=O)c2cc(Cl)cc(Cl)c2)C(=O)O)CC1 [Example 95, (2S)-2-[1-(3,5-Dichlorophenylsulfonyl)-L-prolyl]amino-3-[[4 (dimethylaminomethyl)piperidin-1-ylcarbonyl]amino]propionic Acid] is 1.6-fold lower in IC50: 7.7 nM for the first, 4.9 nM for the second.

First: CN1CCN(C(=O)OCCC2CCN(C(=O)CC[C@H](NC(=O)[C@@H]3CCCN3S(=O)(=O)c3cc(Cl)cc(Cl)c3)C(=O)O)CC2)CC1 [Example 93, (2S)-2-[1-(3,5-Dichlorophenylsulfonyl)-L-prolylamino]-5-[4-[2-[(4-methylpiperazin-1-yl)carbonyloxy]ethyl]piperidin-1-yl]5-oxopentanoic Acid]
Second: CN1CCN(C(=O)OCCC2CCN(C(=O)NC[C@H](NC(=O)[C@@H]3CCCN3S(=O)(=O)c3cc(Cl)cc(Cl)c3)C(=O)O)CC2)CC1 [Example 116, (2S)-2-[1-(3,5-Dichlorophenylsulfonyl)-L-prolyl]amino-3-[[4-[2-[(4-methylpiperazin-1-yl)carbonyloxy]ethyl]piperidin-1-ylcarbonyl]amino]propionic Acid]
The IC50 of the first is 2.7-fold higher: 26.7 nM for the first, 9.8 nM for the second. The second is the more potent here.

Compared with CN1CCN(C(=O)NCC2CCN(C(=O)CC[C@H](NC(=O)[C@@H]3CCCN3S(=O)(=O)c3cc(Cl)cc(Cl)c3)C(=O)O)CC2)CC1 [Example 97, (2S)-2-[1-(3,5-Dichlorophenylsulfonyl)-L-prolylamino]-5-[4-[[(4-methylpiperazin-1-yl)carbonylamino]methyl]piperidin-1-yl]-5-oxopentanoic Acid], O=C(O)[C@H](CCC(=O)N1CCC(COc2ccncc2)CC1)NC(=O)[C@@H]1CCCN1S(=O)(=O)c1cc(Cl)cc(Cl)c1 [Example 102, (2S)-2-[1-(3,5-Dichlorophenylsulfonyl)-L-prolylamino]-5-oxo-5-[4-(4-pyridyloxymethyl)piperidin-1-yl]pentanoic Acid] is 2.5-fold higher in IC50: 122 nM for the first, 305 nM for the second.

Going from CN(C)CC1CCN(C(=O)OC[C@H](NC(=O)[C@@H]2CCCN2S(=O)(=O)c2cc(Cl)cc(Cl)c2)C(=O)O)CC1 [Example 98, (2S)-2-[1-(3,5-Dichlorophenylsulfonyl)-L-prolyl]amino-3-[4-(dimethylaminomethyl)piperidin-1-ylcarbonyloxy]propionic Acid] to Cc1ccc(S(=O)(=O)N2CCC[C@H]2C(=O)N[C@@H](CNC(=O)N2CCC(CN3CCCCC3)CC2)C(=O)O)cc1 [Example 105, (2S)-3-[[4-(1-Piperidylmethyl)piperidin-1-ylcarbonyl]amino]-2-[N-tosyl-L-prolyl]aminopropionic Acid], the IC50 rises from 17.7 nM to 120 nM (6.8-fold). The first is the more potent here.
